Test results from patent US20240150367A1, “NITROGEN-CONTAINING SPIRO CYCLIC COMPOUNDS AND PHARMACEUTICAL USE THEREOF” (Japan Tobacco Inc., priority 2009, published 2024).

Legend:
[1] = biological target: hJAK3 kinase domain (aa781-end) (Homo sapiens (Human), UniProt P52333); test: JAK3 activity inhibition, kinase reaction (Test 1); conditions: for inhibition at 1 µM: read-out: JAK3 % Inhibition; for IC50: read-out: JAK3 IC50
Description: JAK3 activity inhibitory effects of test compounds were evaluated by the following kinase reactions.
In the kinase reactions, fused proteins (6His tag-fused hJAK3 kinase domain (aa781-end)) which were coexpressed in Sf21 cells and purified by Ni2+/NTA agarose were used.
A well in which ATP was not added was set out as a blank well.
Plates were let stand at room temperature for 10 minutes from starting reactions.
One hour after the addition of the buffer for detection, fluorescence counts of each well were measured by a fluorescence microplate reader.
Data were obtained by deducting the average Ratio of a blank well from Ratio of each well.

[2] = biological target: hJAK2 kinase domain (aa808-end) (Homo sapiens (Human), UniProt O60674); test: JAK2 activity inhibition, kinase reaction (Test 2); format: biochemical
Chain of hJAK2 kinase domain (aa808-end) (O60674 808-1132 limits assumed): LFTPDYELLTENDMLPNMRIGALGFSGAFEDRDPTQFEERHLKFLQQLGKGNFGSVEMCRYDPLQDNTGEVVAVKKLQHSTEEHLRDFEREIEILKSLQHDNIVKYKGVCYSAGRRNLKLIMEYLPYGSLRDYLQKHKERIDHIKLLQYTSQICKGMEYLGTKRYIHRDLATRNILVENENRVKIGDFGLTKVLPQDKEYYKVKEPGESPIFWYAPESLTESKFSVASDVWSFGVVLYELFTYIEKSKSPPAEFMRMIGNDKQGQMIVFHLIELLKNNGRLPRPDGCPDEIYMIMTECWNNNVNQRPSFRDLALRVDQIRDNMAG

Chain of hJAK3 kinase domain (aa781-end) (P52333 781-1124 limits assumed): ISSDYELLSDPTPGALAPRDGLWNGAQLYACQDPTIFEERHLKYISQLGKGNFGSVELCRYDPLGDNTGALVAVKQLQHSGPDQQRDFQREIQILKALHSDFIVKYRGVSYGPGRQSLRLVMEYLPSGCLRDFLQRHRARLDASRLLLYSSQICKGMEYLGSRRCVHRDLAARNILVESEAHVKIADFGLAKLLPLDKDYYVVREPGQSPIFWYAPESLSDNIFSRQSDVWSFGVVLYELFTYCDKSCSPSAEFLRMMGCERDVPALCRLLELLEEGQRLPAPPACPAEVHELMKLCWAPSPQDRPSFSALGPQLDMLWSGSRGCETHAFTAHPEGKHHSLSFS

Row | Structure (SMILES) | IC50 [1] | also measured
1 | N#CC1CCN(C(=O)N2CCCC23CCN(c2ncnc4[nH]ccc24)C3)C1 (racemic) [Compound 51] | – | inhibition at 1 µM [1]: 41%
2 | c1nc(N2CCCC3(CCCCCN3)C2)c2cc[nH]c2n1 (racemic) [Compound 75] | – | inhibition at 1 µM [1]: 1%
3 | c1nc(N2CCC3(CCCCN3)C2)c2cc[nH]c2n1 (racemic) [Compound 79] | – | inhibition at 1 µM [1]: 38%
4 | CC(=O)N1CCCC12CCN(c1ncnc3[nH]ccc13)C2 (racemic) [Compound 87] | – | inhibition at 1 µM [1]: 39%
5 | N#CCC(=O)N1CCCC12CCCN(c1c(Cl)cnc3[nH]ncc13)C2 (racemic) [Compound 91] | – | inhibition at 1 µM [1]: 42%
6 | CC1CN(C(=O)CC#N)C12CCCN(c1ncnc3[nH]ccc13)C2 (single isomer, unassigned) [Compound 1, 3-[3-methyl-6-(7H-pyrrolo[2,3-d]pyrimidin-4-yl)-1,6-diazaspiro[3.5]non-1-yl]-3-oxopropionitrile] | – | IC50 [2]: 1 nM
7 | CC1CN(C(=O)CC#N)C12CCCN(c1ncnc3[nH]ccc13)C2 (single isomer, unassigned) [Compound 2, 3-[3-methyl-6-(7H-pyrrolo[2,3-d]pyrimidin-4-yl)-1,6-diazaspiro[3.5]non-1-yl]-3-oxopropionitrile] | – | IC50 [2]: 1.7 nM
8 | CC(O)C(=O)N1CCCC12CCCN(c1ncnc3[nH]ccc13)C2 (single isomer, unassigned) [Compound 30] | 580 nM | –
9 | CC1CC2(CCCN2C(=O)CC#N)CN1c1ncnc2[nH]ccc12 (single isomer, unassigned) [Compound 33] | 480 nM | –
10 | CC1N(c2ncnc3[nH]ccc23)CCC12CCCN2C(=O)CC#N (single isomer, unassigned) [Compound 34] | 36 nM | –
11 | CC(O)C(=O)N1CCCC12CCCN(c1ncnc3[nH]ccc13)C2 (single isomer, unassigned) [Compound 35] | 530 nM | –
12 | CC(O)C(=O)N1CCCC12CCCN(c1ncnc3[nH]ccc13)C2 (single isomer, unassigned) [Compound 36] | 150 nM | –
13 | CC1CC2(CCCN2C(=O)CC#N)CN1c1ncnc2[nH]ccc12 (single isomer, unassigned) [Compound 42] | 100 nM | –
14 | N#CCC(=O)N1CCC12CCCN(c1ncnc3[nH]ccc13)C2 (stereo not drawn) [Compound 3, 3-oxo-3-[6-(7H-pyrrolo[2,3-d]pyrimidin-4-yl)-1,6-diazaspiro[3.5]non-1-yl]-propionitrile] | – | IC50 [2]: 2.2 nM
15 | N#CCC(=O)N1CC(F)(F)C12CCN(c1ncnc3[nH]ccc13)C2 (stereo not drawn) [Compound 4, 3-[3,3-difluoro-6-(7H-pyrrolo[2,3-d]pyrimidin-4-yl)-1,6-diazaspiro[3.4]oct-1-yl]-3-oxopropionitrile] | – | IC50 [2]: 1.7 nM
16 | N#CCC(=O)N1CC(F)(F)C12CCCN(c1ncnc3[nH]ccc13)C2 (stereo not drawn) [Compound 5, 3-[3,3-difluoro-6-(7H-pyrrolo[2,3-d]pyrimidin-4-yl)-1,6-diaza-spiro[3.5]non-1-yl]-3-oxo-propionitrile] | – | IC50 [2]: 1.9 nM
17 | N#CCC(=O)N1CCCC12CCCN(c1ncnc3[nH]ccc13)C2 (stereo not drawn) [Compound 7, 3-oxo-3-[7-(7H-pyrrolo[2.3-d]pyrimidin-4-yl)-1,7-diazaspiro[4.5]dec-1-yl)propionitrile] | – | IC50 [2]: 4.7 nM
18 | CC1N(c2ncnc3[nH]ccc23)CCC12CCCN2C(=O)CC#N (stereo not drawn) [Compound 13] | – | inhibition at 1 µM [1]: 26%
19 | CC1CC2(CCCN(c3ncnc4[nH]ccc34)C2)N1C(=O)CC#N (stereo not drawn) [Compound 14] | 41 nM | –
20 | CC1CC2(CCCN(c3ncnc4[nH]ccc34)C2)N1C(=O)CC#N (stereo not drawn) [Compound 20] | 100 nM | –
21 | C[C@H](O)C(=O)N1CCCC12CCCN(c1ncnc3[nH]ccc13)C2 (stereo partly drawn) [Compound 43] | 40 nM | –
22 | CO[C@@H](C)C(=O)N1CCCC12CCCN(c1ncnc3[nH]ccc13)C2 (stereo partly drawn) [Compound 45] | 270 nM | –
23 | CO[C@H](C)C(=O)N1CCCC12CCCN(c1ncnc3[nH]ccc13)C2 (stereo partly drawn) [Compound 46] | 270 nM | –
24 | CC(=O)O[C@@H](C)C(=O)N1CCCC12CCCN(c1ncnc3[nH]ccc13)C2 (stereo partly drawn) [Compound 47] | 110 nM | –
